“And” between values parts separate entries of the source, which are not always exact repeats. Identical values can stand only once.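 Values below derive from 48-hour exposures of cells grown in 96-well plates, with endpoints linearly interpolated between the two concentrations bracketing the appropriate inhibition level. Here, GI50 denotes the concentration required for 50% inhibition of growth. TGI: concentration producing complete growth inhibition.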
Tests used:
Assay in all cases: growth of human tumour cells (NCI), 48 h
LOX IMVI melanoma = tested on: LOX IMVI melanoma
M14 melanoma = tested on: M14 melanoma
SK-MEL-5 melanoma = tested on: SK-MEL-5 melanoma
NCI/ADR-RES ovarian = tested on: NCI/ADR-RES ovarian
OVCAR-8 ovarian = tested on: OVCAR-8 ovarian
MALME-3M melanoma = tested on: MALME-3M melanoma
OVCAR-4 ovarian = tested on: OVCAR-4 ovarian
K-562 leukemia = tested on: K-562 leukemia
KM12 colon = tested on: KM12 colon
SK-MEL-2 melanoma = tested on: SK-MEL-2 melanoma

Compound	GI50 (LOX IMVI melanoma)	TGI (LOX IMVI melanoma)	GI50 (M14 melanoma)	TGI (M14 melanoma)	GI50 (SK-MEL-5 melanoma)	TGI (SK-MEL-5 melanoma)	GI50 (NCI/ADR-RES ovarian)	TGI (NCI/ADR-RES ovarian) [µM]	GI50 (OVCAR-8 ovarian)	TGI (OVCAR-8 ovarian)	GI50 (MALME-3M melanoma)	TGI (MALME-3M melanoma)	GI50 (OVCAR-4 ovarian)	TGI (OVCAR-4 ovarian)	GI50 (K-562 leukemia)	TGI (K-562 leukemia)	GI50 (KM12 colon)	TGI (KM12 colon) [µM]	GI50 (SK-MEL-2 melanoma)	TGI (SK-MEL-2 melanoma) [µM]
CC1(C)CC[C@]2(C(=O)O)CC[C@]3(C)C(=CC[C@@H]4[C@@]5(C)C/C(=C/c6ccco6)C(=O)C(C)(C)[C@@H]5CC[C@]43C)[C@@H]2C1	2.46 µM	6.77 µM	4.51 µM	21.6 µM	2.51 µM	8.74 µM	3.64 µM	44.5	4.29 µM	> 100 µM	3.99 µM	16.6 µM	3.76 µM	41.1 µM	3.37 µM	> 100 µM	2.77 µM	11.6	2.99 µM	11.4
CN(C)c1ccc(N=C2C=CC(=C(C#N)C#N)c3ccccc32)cc1		3.49 µM		8.79 µM		0.713 µM		2.34		1.75 µM		17.1 µM		6.13 µM		5.71 µM		12		6.7
CC1=C2[C@@H](CC1)[C@]1(C)O[C@@](C3CC3)(C[C@H]1OC(=O)CO)[C@H]2OC(=O)/C=C/c1ccccc1	15.1 µM	31.8 µM	16.4 µM	32.3 µM	16.7 µM	30.5 µM	0.103 µM	14.1	0.0834 µM	15.4 µM	15.6 µM	32.8 µM	14.5 µM	29.2 µM	16.1 µM	46 µM	16.6 µM	32.3	18.1 µM	36.1
CNCc1ccc(-c2[nH]c3cc(F)cc4c3c2CCNC4=O)cc1	12.9 µM	29.2 µM	16.6 µM	32.7 µM	14.7 µM	28.1 µM	69.2 µM	> 100	17.4 µM	77.5 µM	17 µM	36.1 µM	13.5 µM	47.8 µM	18 µM	43.9 µM	20 µM	45.3	20.9 µM	39.3
N/C(=N\C(N)=N\c1nc2ccccc2s1)c1cnccn1	3.47 µM	> 100 µM	3.21 µM	> 100 µM	2.29 µM	5.89 µM	4.28 µM	> 100	3.11 µM	26.5 µM	2.27 µM	5.66 µM	3.38 µM	> 100 µM	3.69 µM	> 100 µM	3.37 µM	> 100	1.95 µM	4.63
CCSc1ncc(Br)c(Sc2nc(N)nc3nc[nH]c23)n1	2.39 µM	> 100 µM	1.79 µM	8.68 µM	3.8 µM	49.8 µM	3.48 µM	> 100	4.54 µM	> 100 µM	1.25 µM	34.3 µM	2.29 µM	30.5 µM	3.11 µM	> 100 µM	7.05 µM	> 100	4.19 µM	> 100
N#CC(NC(=O)CCl)=C(Cl)Cl	1.57 µM	3.1 µM	1.34 µM	2.87 µM	1.57 µM	3.27 µM	2.95 µM	16.8	2.21 µM	6.08 µM	1.49 µM	3.02 µM	1.76 µM	3.6 µM	0.595 µM	2.71 µM	1.88 µM	4.17	2.16 µM	5.24
Cc1nc2c(Br)cc(Br)cc2c(=O)n1-c1ccccc1NC1OCC(O)C(O)C1O (stereo not drawn)		97.7 µM and > 51.3 µM		46.7 µM and > 100 µM	36.9 µM and 13.4 µM	> 100 µM and 31.3 µM	43.3 µM and > 100 µM	> 100	30.6 µM and 14.5 µM	> 100 µM and 50.7 µM		> 100 µM		> 100 µM	15.1 µM and > 32.7 µM	46.6 µM and > 81.2 µM		67		> 100
CCCCC[C@@H](C/C=C/CCC(=O)NC/C(=C/Cl)[C@H]1C(=O)C(C)(C)C(=O)[C@@H](C)[C@@]1(C)O)OC	18.8 µM	38 µM	16.9 µM	31.2 µM	17.3 µM	32.1 µM	20.8 µM	41.3	18.6 µM	36.1 µM	18.9 µM	35.5 µM	20 µM	45.8 µM	21.8 µM	48.5 µM	17.5 µM	32.7	17.3 µM	31.9
Nc1nc(=S)c2[nH]cnc2[nH]1	0.136 µM and 0.488 µM	2.23 µM and 8.64 µM and 19.4 µM	0.413 µM and 0.677 µM		1.59 µM and 2.68 µM and 6.68 µM		0.37 µM and 0.421 µM and 0.96 µM		0.374 µM and 0.432 µM and 0.91 µM		0.583 µM and 3.13 µM and 1.43 µM	10.9 µM and 24.7 µM and 29.3 µM	0.573 µM and 4.99 µM	> 100 µM and 97.4 µM and 109 µM	0.488 µM	74.1 µM and 8.6 µM	0.816 µM and 3.25 µM and 3.14 µM		0.741 µM and 1.7 µM and 3.7 µM	
N#CCC1(n2cc(-c3ncnc4[nH]ccc34)cn2)CN(C2CCN(C(=O)c3ccnc(C(F)(F)F)c3F)CC2)C1	96.8 µM	> 100 µM	> 100 µM	> 100 µM	65.3 µM	> 100 µM	> 100 µM	> 100	> 100 µM	> 100 µM	> 100 µM	> 100 µM	> 100 µM	> 100 µM	99.2 µM	> 100 µM	36.1 µM	> 100	> 100 µM	> 100
C#Cc1cccc(NC(=O)C2CCCN(C(=O)CCl)C2)c1 (stereo not drawn)	14.4 µM	28.7 µM	29.9 µM	> 82.5 µM	29.7 µM	> 82.5 µM	> 82.5 µM	> 82.5	61.8 µM	> 82.5 µM	18.1 µM	78.6 µM	19.5 µM	52.8 µM	36.6 µM	> 82.5 µM	> 82.5 µM	> 82.5	> 82.5 µM	> 82.5
C[C@]12CCC3=NCCN3C1=CC[C@@H]1[C@@H]2CC[C@@]2(C)[C@H]1CC[C@]2(C)O		> 100 µM		> 100 µM		35.6 µM		> 100		> 100 µM		53.5 µM		> 100 µM		> 100 µM		> 100		> 100
CCCCCCCCCCCCOC1C(C(CC(=O)N2CCN(Cc3ccc4c(c3)OCO4)CC2)NS(=O)(=O)c2cc(Cl)cc(Cl)c2)OC2OC(C)(C)OC21 (stereo not drawn)	16 µM	> 65.9 µM	61.1 µM	> 100 µM	39.3 µM	> 100 µM	> 100 µM	> 100	20.6 µM	> 100 µM	> 93.1 µM	> 100 µM	18.1 µM	> 100 µM	14.8 µM	> 100 µM	18.1 µM	> 100	47.9 µM	> 100
Cn1ccnc1C(=O)/C=C/c1ccc(C(=O)Nc2c(F)c(F)c(F)c(F)c2F)cc1	1.5 µM	2.87 µM	1.77 µM	3.7 µM	1.79 µM	3.28 µM	3.09 µM	12.9	1.72 µM	4.04 µM	2.1 µM	5.91 µM	1.53 µM	4.52 µM	0.526 µM	2.83 µM	1.14 µM	2.71	2.18 µM	5.6
COc1cccc(C2C(C#N)=C(N)Oc3cc4c(cc32)OCO4)c1 (stereo not drawn)	0.234 µM	17.2 µM	0.059 µM	16.3 µM	0.0332 µM	3.76 µM	0.0299 µM	0.151	0.0956 µM	> 36.2 µM	0.0501 µM	31.4 µM	0.457 µM	> 100 µM	0.04 µM	> 100 µM	0.0404 µM	4.27	0.0301 µM	6.77
COc1ccc(/C(C)=C(\c2ccc(Cl)cc2)c2ccc(OCCN3CCCCCC3)cc2)cc1F	2.51 µM	4.82 µM	2.74 µM	7.18 µM	2.89 µM	5.27 µM	4 µM	12.4	5.09 µM	> 16.7 µM	2.25 µM	4.72 µM	2.63 µM	8.09 µM	0.828 µM	16.4 µM	1.7 µM	7.04	5.23 µM	16.3
COc1cc(OC)cc(-c2ccc(-c3ccc(C(=N)N)cn3)s2)c1	1.7 µM	3.2 µM	1.79 µM	3.47 µM	1.77 µM	3.16 µM	3.27 µM	11.6	2.3 µM	5.3 µM	1.87 µM	3.56 µM	1.9 µM	3.64 µM	2.22 µM	6.19 µM	1.84 µM	3.48	19.5 µM	40.3
CC1=C(CNO)C2=C(C)C3(CC3)[C@@](C)(O)C(=O)C2=C1	3.44 µM	19 µM	1.92 µM	5.04 µM	1.68 µM	3.22 µM	2.32 µM	7.63	2.28 µM	36 µM	1.81 µM	3.71 µM	2.1 µM	7.06 µM	11.9 µM	> 100 µM	3.72 µM	27.4	1.98 µM	4.91
NC(N)=N/N=C(/c1ccccc1)c1ccccc1F	4.69 µM	19.9 µM	1.7 µM	9.59 µM	0.911 µM	12.5 µM	2.69 µM	9.74	4.03 µM	25.8 µM	8 µM	25.6 µM	1.73 µM	32 µM	1.32 µM	> 100 µM	1.14 µM	12.9	12.2 µM	36.7
O=C(OC[C@@H]1CO1)c1cccc2c(=O)c3ccccc3[nH]c12	0.0807 µM	0.48 µM	0.344 µM	1.65 µM	0.21 µM	0.473 µM	0.253 µM	2.08	0.166 µM	2.78 µM	0.472 µM	1.76 µM	0.671 µM	4.72 µM	0.24 µM	> 100 µM	0.245 µM	0.771	0.251 µM	0.595
COc1ccc(/C=C\c2cc(OC)c(OC)c(OC)c2)c(NS(=O)(=O)c2ccc(C(C)(C)C)cc2)c1O	0.667 µM	17.1 µM	0.191 µM	13.5 µM	0.345 µM	1.83 µM	0.309 µM	19.6	0.44 µM	> 100 µM	12.5 µM	30.4 µM	0.188 µM	32 µM	0.0714 µM	> 100 µM	0.58 µM	15.2	1.22 µM	20.2
COC(=O)[C@H](Cc1cn(C)cn1)NC(=O)[C@@H](NC(=O)Nc1cc(C(F)(F)F)cc(C(F)(F)F)c1)C(C)C	1.74 µM	3.4 µM	8.62 µM	> 10 µM	2.98 µM	> 10 µM	> 10 µM	> 10	2.16 µM	5.22 µM	> 10 µM	> 10 µM	4.58 µM	> 10 µM	4.74 µM	> 10 µM	1.98 µM	4.22	> 10 µM	> 10
O=c1[nH]c2ccc([N+](=O)[O-])c(Cl)c2c2ccccc12		> 100 µM		> 100 µM		13 µM		> 100		3.56 µM		27.6 µM		24.7 µM		> 100 µM		4.52		24.7
CCN1CCN(c2nc(NNC(=O)c3ccccc3)nc(N3CCN(C(c4ccccc4)c4ccccc4)CC3)n2)CC1	1.82 µM	3.35 µM	1.88 µM	3.56 µM	1.73 µM	3.14 µM	3.32 µM	14.3	3.58 µM	19.5 µM	1.7 µM	3.48 µM	5.39 µM	26.1 µM	1.77 µM	4.32 µM	3.42 µM	11.8	2.4 µM	5.67

Reference: PubChem BioAssay (NCI)
